From US8557848B2, “4,5-ring annulated indole derivatives for treating or preventing of HCV and related viral infections” (Merck Sharp & Dohme Corp., priority 2006, dated 2013) come the findings set out here.

Like-named read-outs stand apart in the source and are kept apart here. A value given as a limit tells only on which side of the number the result lay.

For assay [1], the target named is T1, HCV NS5B polymerase (NS5BΔCT21, from HCV-Con 1 isolate, genotype 1b) (Hepatitis C virus genotype 1b, UniProt Q9WMX2).
T1 construct: A soluble C-terminal 21-amino acid truncated NS5B enzyme form; polyhistidine (C); made in house; host or cells: Escherichia coli
The experiment in a line: HCV NS5B Polymerase Inhibition Assay. In kind it is biochemical. The text has this: A chemically synthesized 75-mer version, designated DCoH75, whose sequence matches the 3′-end of D-RNA, and DCoH75ddC, where the 3′-terminal cytidine of DCoH75 is replaced by dideoxycytidine, were used for assaying the NS5B enzyme activity as described in Ferrari et al., 12th International Symposium on HCV and Related Viruses, P-306 (2005). The sequence of the template RNA was: 5′-UGUGCCGGUCUUUCUGAACGGGAUAUAAACCUGGCCAGCUUCAUCGAACAAGUUGCCGUGUCUAUGACAUAGAUC-3′. A soluble C-terminal 21-amino acid truncated NS5B enzyme form (NS5BΔCT21, from HCV-Con 1 isolate, genotype 1b, Genbank accession number AJ238799) was produced and purified from Escherichia coli as C-terminal polyhistidine-tagged fusion protein as described in Ferrari et al., J. Virol. 73:1649-1654 (1999). A typical assay contained 20 mM Hepes pH 7.3, 10 mM MgCl2, 60 mM NaCl, 100 μg/ml BSA, 20 units/ml RNasin, 7.5 mM DTT, 0.1 μM ATP/GTP/UTP, 0.026 μM CTP, 0.25 mM GAU, 0.03 μM RNA template, 20 μCi/ml [^33P]-CTP, 2% DMSO, and 30 or 150 nM NS5B enzyme. Reactions were incubated at 22° C. for 2 hours, then stopped by adding 150 mM EDTA, washed in DE81 filter plate in 0.5M di-basic sodium phosphate buffer, pH 7.0, and counted using Packard TopCount after the addition of scintillation cocktail. Polynucleotide synthesis was monitored by the incorporation of radiolabeled CTP. The effect of the Compounds of Formula (I) on the polymerase activity was evaluated by adding various concentrations of a Compound of Formula (I), typically in 10 serial 2-fold dilutions, to the assay mixture. The starting concentrations ranged from 200 μM to 1 μM. An IC50 value for the inhibitor, defined as the compound concentration that provides 50% inhibition of polymerase activity, was determined by fitting the cpm data to the Hill equation Y=100/(1+10^((LogIC50-X)*HillSlope)), where X is the logarithm of compound concentration, and Y is the % inhibition. Ferrari et al., 12th International Symposium on HCV and Related Viruses, P-306 (2005) described in detail this assay procedure. It should be noted that such an assay as described is exemplary and not intended to limit the scope of the invention. The skilled practitioner can appreciate that modifications including but not limited to RNA template, primer, nucleotides, NS5B polymerase form, buffer composition, can be made to develop similar assays that yield the same result for the efficacy of the compounds and compositions described in the invention.
NS5B polymerase inhibition data for selected Compounds of Formula (I) is provided below in Table 2, wherein the compound numbers correspond to the compound numbering set forth in the above specification.

Assay [2] concerns HCV replicon cells (replicon RNA level). The experiment in a line: Cell-Based HCV Replicon Assay. Conditions: Hepatitis C virus, 72 h. As for the experimental part:
To measure cell-based anti-HCV activity of the a Compound of Formula (I), replicon cells were seeded at 5000 cells/well in 96-well collagen I-coated Nunc plates in the presence of the Compound of Formula (I). Various concentrations of a Compound of Formula (I), typically in 10 serial 2-fold dilutions, were added to the assay mixture, with the starting concentration ranging from 250 μM to 1 μM. The final concentration of DMSO was 0.5%, fetal bovine serum was 5%, in the assay media. Cells were harvested on day 3 by the addition of 1× cell lysis buffer (Ambion cat #8721). The replicon RNA level was measured using real time PCR (Taqman assay). The amplicon was located in 5B. The PCR primers were: 5B.2F, ATGGACAGGCGCCCTGA; 5B.2R, […]; the probe sequence was FAM-labeled CACGCCATGCGCTGCGG. GAPDH RNA was used as endogenous control and was amplified in the same reaction as NS5B (multiplex PCR) using primers and VIC-labeled probe recommended by the manufacturer (PE Applied Biosystem). The real-time RT-PCR reactions were run on ABI PRISM 7900HT Sequence Detection System using the following program: 48° C. for 30 min, 95° C. for 10 min, 40 cycles of 95° C. for 15 sec, 60° C. for 1 min. The ΔCT values (CT5B-CTGAPDH) were plotted against the concentration of test compound and fitted to the sigmoid dose-response model using XLfit4 (MDL). EC50 was defined as the concentration of inhibitor necessary to achieve ΔCT=1 over the projected baseline; EC90 the concentration necessary to achieve ΔCT=3.2 over the baseline. Alternatively, to quantitate the absolute amount of replicon RNA, a standard curve was established by including serially diluted T7 transcripts of replicon RNA in the Taqman assay. All Taqman reagents were from PE Applied Biosystems. Such an assay procedure was described in detail in e.g. Malcolm et al., Antimicrobial Agents and Chemotherapy 50: 1013-1020 (2006).
HCV Replicon assay data for selected Compounds of Formula (I) is provided below in Table 1, wherein the compound numbers correspond to the compound numbering set forth in the above specification.

Setting [3] is: NS5B polymerase inhibition, [33P]-CTP incorporation, 22° C. for 2 hours, read-out: IC50.
Where [4] appears, read: replicon RNA level by real time PCR (Taqman), cells harvested on day 3, read-out: EC50.

A word on the IC50: it is the concentration at which inhibition is half-maximal. By EC50 is commonly meant the midpoint of the concentration-response curve.

On to `CC(C)S(=O)(=O)NC(=O)c1c(-c2ccc[nH]c2=O)c2c3occc3ccc2n1Cc1ccccc1F` [Compound 64], for which the IC50 in assay [1] (setting [3]) was less than 25 nM. In assay [2] (setting [4]), the EC50 is less than 500 nM.
In the case of `O=C(NS(=O)(=O)C1CC1)c1c(-c2ccc[nH]c2=O)c2c3occc3ccc2n1Cc1ccccc1F` [Compound 65], the IC50 in assay [1] (setting [3]) was less than 25 nM. The EC50 in assay [2] (setting [4]) is less than 500 nM.
For `Cc1cccc(Cn2c(C(=O)NS(C)(=O)=O)c(-c3ccc[nH]c3=O)c3c4occc4ccc32)c1F` [Compound 66], the IC50 in assay [1] (setting [3]) is less than 25 nM. The EC50 in assay [2] (setting [4]) is less than 500 nM.
For the compound `CS(=O)(=O)NC(=O)c1c(-c2ccc[nH]c2=O)c2c3occc3ccc2n1Cc1ccccc1Cl` [Compound 67], the IC50 in assay [1] (setting [3]) was less than 25 nM. Further, the EC50 in assay [2] (setting [4]) is less than 500 nM.
The corresponding values for `CCS(=O)(=O)NC(=O)c1c(-c2ccc[nH]c2=O)c2c3occc3ccc2n1Cc1ccccc1F` [Compound 68] are less than 25 nM and less than 500 nM.
With `CCc1coc2c1ccc1c2c(-c2ccc[nH]c2=O)c(C(=O)NS(C)(=O)=O)n1Cc1cc(F)ccc1F` [Compound 69], the IC50 in assay [1] (setting [3]) is more than 100 nM. Besides, the EC50 in assay [2] (setting [4]) was less than 500 nM.
For the compound `CCc1coc2c1ccc1c2c(-c2ccc[nH]c2=O)c(C(=O)NS(C)(=O)=O)n1Cc1ccccc1F` [Compound 70], the IC50 in assay [1] (setting [3]) was more than 100 nM. Also, the concentration giving a half-maximal response (EC50) in assay [2] (setting [4]) is more than 1500 nM.
In the same order, the values of `Cc1cc2ccc3c(c(-c4ccc[nH]c4=O)c(C(=O)O)n3Cc3ccccc3F)c2o1` [Compound 76] are 25 to 100 nM and more than 1500 nM.
`Nc1cc(Cn2c(C(=O)O)c(-c3ccc[nH]c3=O)c3c4occc4c(F)cc32)ccn1` [Compound 77]: the IC50 in assay [1] (setting [3]) was less than 25 nM. In addition, the EC50 in assay [2] (setting [4]) is less than 500 nM.
On to `O=C(O)c1c(-c2ccc[nH]c2=O)c2c3occc3c(F)cc2n1Cc1cc[nH]c(=O)c1` [Compound 78], for which the IC50 in assay [1] (setting [3]) was 25 to 100 nM. Further, the EC50 in assay [2] (setting [4]) is less than 500 nM.
In the same order, the values of `O=C(O)c1c(-c2ccc[nH]c2=O)c2c3occc3c(F)cc2n1Cc1ccccc1F` [Compound 79] are less than 25 nM and less than 500 nM.
Regarding `Nc1n[nH]c2cc(F)c(Cn3c(C(=O)O)c(-c4ccc[nH]c4=O)c4c5occc5c(F)cc43)cc12` [Compound 80], in assay [1], the IC50 was less than 25 nM. For the same compound, the EC50 in assay [2] (setting [4]) was less than 500 nM.
As to `NCc1cccc(Cn2c(C(=O)O)c(-c3ccc[nH]c3=O)c3c4occc4c(F)cc32)c1` [Compound 81], the IC50 in assay [1] (setting [3]) was less than 25 nM. For the same compound, the EC50 in assay [2] (setting [4]) was less than 500 nM.
The corresponding values for `NCc1ccc(Cn2c(C(=O)O)c(-c3ccc[nH]c3=O)c3c4occc4c(F)cc32)cc1` [Compound 82] are less than 25 nM and less than 500 nM.
For `Cc1c[nH]c(=O)cc1Cn1c(C(=O)O)c(-c2ccc[nH]c2=O)c2c3occc3c(F)cc21` [Compound 83], the IC50 in assay [1] (setting [3]) is less than 25 nM. For the same compound, in assay [2] (setting [4]), the EC50 was less than 500 nM.
In the same order, the values of `Cc1cc2ccc3c(c(-c4ccc[nH]c4=O)c(C(=O)O)n3Cc3cc(F)ccc3F)c2o1` [Compound 85] are less than 25 nM and more than 1500 nM.
For the compound `O=C(O)c1c(-c2ccc[nH]c2=O)c2c3occc3c(F)cc2n1Cc1cc(=O)[nH]cc1F` [Compound 87], the IC50 in assay [1] (setting [3]) is less than 25 nM. This compound also yielded an EC50 in assay [2] of less than 500 nM.
On to `O=C(O)c1c(-c2cccc(O)c2F)c2c3occc3c(F)cc2n1Cc1ccccc1F` [Compound 88], for which the IC50 in assay [1] (setting [3]) lay within 25 to 100 nM. In assay [2] (setting [4]), the EC50 fell in the range of 500 to 1500 nM.
The corresponding values for `O=C(O)c1c(-c2ccc[nH]c2=O)c2c3occc3c(F)cc2n1Cc1cc(F)ccc1F` [Compound 89] are less than 25 nM and less than 500 nM.
As for `O=C(O)c1c(-c2ccc[nH]c2=O)c2c3occc3c(F)cc2n1Cc1ccc2nc[nH]c2c1` [Compound 91], in assay [1] (setting [3]), the IC50 was less than 25 nM. Also, the EC50 in assay [2] (setting [4]) was less than 500 nM.
Take `NC(=O)c1cccc(Cn2c(C(=O)O)c(-c3ccc[nH]c3=O)c3c4occc4c(F)cc32)c1` [Compound 92]: the IC50 in assay [1] (setting [3]) is less than 25 nM. Besides, the EC50 in assay [2] (setting [4]) was less than 500 nM.
`NC(=O)c1ccc(Cn2c(C(=O)O)c(-c3ccc[nH]c3=O)c3c4occc4c(F)cc32)cc1` [Compound 93]: the IC50 in assay [1] (setting [3]) is less than 25 nM. In addition, in assay [2] (setting [4]), the EC50 is less than 500 nM.
For the compound `NC(=O)c1ccc(F)c(Cn2c(C(=O)O)c(-c3ccc[nH]c3=O)c3c4occc4ccc32)c1` [Compound 94], the IC50 in assay [1] (setting [3]) was less than 25 nM. Moreover, the EC50 in assay [2] (setting [4]) was less than 500 nM.
The corresponding values for `NCc1ccc(Cn2c(C(=O)O)c(-c3ccc[nH]c3=O)c3c4occc4c(F)cc32)c(F)c1` [Compound 95] are less than 25 nM and less than 500 nM.
Take `Cn1cc(F)c(Cn2c(C(=O)O)c(-c3ccc[nH]c3=O)c3c4occc4c(F)cc32)cc1=O` [Compound 96]: the IC50 in assay [1] (setting [3]) was less than 25 nM. Moreover, in assay [2] (setting [4]), the concentration giving a half-maximal response (EC50) is less than 500 nM.
On to `NC(=O)c1cc(Cn2c(C(=O)O)c(-c3ccc[nH]c3=O)c3c4occc4c(F)cc32)cs1` [Compound 97], for which the concentration for half-maximal inhibition (IC50) in assay [1] (setting [3]) is less than 25 nM. Further, in assay [2] (setting [4]), the EC50 is less than 500 nM.
`NC(=O)c1ncc(Cn2c(C(=O)O)c(-c3ccc[nH]c3=O)c3c4occc4c(F)cc32)s1` [Compound 98]: the IC50 in assay [1] (setting [3]) was in the range of 25 to 100 nM. Also, in assay [2] (setting [4]), the EC50 was in the range of 500 to 1500 nM.
The corresponding values for `NC(=O)c1cc(Cn2c(C(=O)O)c(-c3ccc[nH]c3=O)c3c4c(c(F)cc32)CCO4)cs1` [Compound 99] are less than 25 nM and 500 to 1500 nM.
As to `Nc1n[nH]c2ccc(Cn3c(C(=O)O)c(-c4ccc[nH]c4=O)c4c5occc5c(F)cc43)cc12` [Compound 100], the IC50 in assay [1] (setting [3]) is less than 25 nM. Besides, the EC50 in assay [2] (setting [4]) was less than 500 nM.
For `Nc1nc2cc(Cn3c(C(=O)O)c(-c4ccc[nH]c4=O)c4c5occc5c(F)cc43)ccc2[nH]1` [Compound 101], the IC50 in assay [1] (setting [3]) was less than 25 nM. The EC50 in assay [2] (setting [4]) was less than 500 nM.
In the case of `Nc1noc2ccc(Cn3c(C(=O)O)c(-c4ccc[nH]c4=O)c4c5occc5c(F)cc43)cc12` [Compound 102], in assay [1] (setting [3]), the IC50 is less than 25 nM. Further, the EC50 in assay [2] (setting [4]) is less than 500 nM.
For the compound `O=C(O)c1c(-c2ccc[nH]c2=O)c2c3occc3c(F)cc2n1Cc1ccc2[nH]c(=O)[nH]c2c1` [Compound 103], the IC50 in assay [1] (setting [3]) is less than 25 nM. In addition, in assay [2] (setting [4]), the half-maximal effective concentration (EC50) is less than 500 nM.
Regarding `COc1ccc([N+](=O)[O-])cc1Cn1c(C(=O)O)c(-c2ccc[nH]c2=O)c2c3occc3ccc21` [Compound 104], in assay [1] (setting [3]), the IC50 was less than 25 nM. Besides, in assay [2] (setting [4]), the EC50 is more than 1500 nM.
Consider `O=C(O)c1c(-c2ccc[nH]c2=O)c2c3occc3c(F)cc2n1Cc1cc2nc[nH]c2cc1F` [Compound 105], for which the IC50 in assay [1] (setting [3]) was less than 25 nM. For the same compound, the EC50 in assay [2] (setting [4]) is less than 500 nM.
